± gives the expanded uncertainty stated by the source.
Key:
[1] = Boiling temperature at pressure P; settings: Liquid, Ebulliometric method (Recirculating still)
[2] = Liquid; for mass density: 293.15 K, 101.33 kPa, Pycnometric method; for Normal boiling temperature: Ebulliometric method (Recirculating still)
[3] = refractive index (Na D-line) (dimensionless); settings: 293.25 K; 101.33 kPa; Liquid; Standard Abbe refractometry

## CC(C)CCO [3-methylbutan-1-ol]
[1]; 5 kPa
  Boiling temperature at pressure P: 62.70 ± 0.26 °C
[1]; 10 kPa
  Boiling temperature at pressure P: 75.77 ± 0.21 °C
[1]; 19.99 kPa
  Boiling temperature at pressure P: 90.18 ± 0.16 °C
[1]; 40.01 kPa
  Boiling temperature at pressure P: 106.36 ± 0.15 °C
[1]; 49.99 kPa
  Boiling temperature at pressure P: 111.97 ± 0.15 °C
[1]; 59.99 kPa
  Boiling temperature at pressure P: 116.67 ± 0.15 °C
[1]; 79.99 kPa
  Boiling temperature at pressure P: 124.46 ± 0.14 °C
[1]; 100 kPa
  Boiling temperature at pressure P: 130.86 ± 0.14 °C
[1]; 101.31 kPa
  Boiling temperature at pressure P: 131.21 ± 0.14 °C
[1]; 120 kPa
  Boiling temperature at pressure P: 136.04 ± 0.14 °C
[1]; 139.99 kPa
  Boiling temperature at pressure P: 141.06 ± 0.14 °C
[1]; 159.99 kPa
  Boiling temperature at pressure P: 145.36 ± 0.14 °C
[1]; 180.01 kPa
  Boiling temperature at pressure P: 149.28 ± 0.14 °C
[1]; 200 kPa
  Boiling temperature at pressure P: 152.86 ± 0.14 °C
[2]
  mass density: 810 ± 8 kg/m3
  Normal boiling temperature: 131.30 ± 0.2 °C
[3]
  refractive index: 1.4067 ± 0.0008

## CC(=O)OCCC(C)C [3-methylbutyl ethanoate]
[1]; 4.98 kPa
  Boiling temperature at pressure P: 59.86 ± 0.29 °C
[1]; 10.05 kPa
  Boiling temperature at pressure P: 75.04 ± 0.23 °C
[1]; 19.88 kPa
  Boiling temperature at pressure P: 92.10 ± 0.17 °C
[1]; 39.98 kPa
  Boiling temperature at pressure P: 111.42 ± 0.16 °C
[1]; 50.03 kPa
  Boiling temperature at pressure P: 118.20 ± 0.15 °C
[1]; 60.02 kPa
  Boiling temperature at pressure P: 123.93 ± 0.15 °C
[1]; 79.97 kPa
  Boiling temperature at pressure P: 133.43 ± 0.15 °C
[1]; 99.82 kPa
  Boiling temperature at pressure P: 141.17 ± 0.15 °C
[1]; 101.09 kPa
  Boiling temperature at pressure P: 141.63 ± 0.15 °C
[1]; 120.12 kPa
  Boiling temperature at pressure P: 147.90 ± 0.15 °C
[1]; 140.02 kPa
  Boiling temperature at pressure P: 153.64 ± 0.15 °C
[1]; 159.98 kPa
  Boiling temperature at pressure P: 158.77 ± 0.15 °C
[1]; 179.92 kPa
  Boiling temperature at pressure P: 163.38 ± 0.15 °C
[1]; 199.94 kPa
  Boiling temperature at pressure P: 167.59 ± 0.15 °C
[2]
  mass density: 873 ± 8 kg/m3
  Normal boiling temperature: 142.09 ± 0.2 °C
[3]
  refractive index: 1.4008 ± 0.0008

Reference: the NIST ThermoML archive (doi:10.1021/acs.jced.6b00197)
